Source: US5874592A, “Physiologically active substance EI-2128-1” (Kyowa Hakko Kogyo Co., Ltd., priority 1996, dated 1999)
Values after ≈ are worked out from the molar mass of the structure shown.

Experiments:
[1] = tested on: production of IL-1β by human monocyte-derived THP-1 cells; assay: Inhibitory activity against the production of IL-1β by LPS-stimulated THP-1 cells (ELISA); assay type: cell-based; conditions: LPS 25 μg/ml, 4 hours, PMA-differentiated THP-1 cells, read-out: 50% inhibitory concentration against the IL-1 production by THP-1 cells stimulated by LPS
Procedure: The inhibitory activity of the compound of the present invention, EI-2128-1, against the production of IL-1β by human monocyte-derived THP-1 cells (ATCC No. TIB 202) was examined in the following manner. The amount of IL-1β was determined by the ELISA method.
THP-1 cells were suspended in RPMI1640 medium (Nissui Pharmaceutical Co., Ltd.) containing 10% inactivated fetal calf serum at a concentration of 1×10^5 cells/ml. The cell suspension was put into wells of a 24-well plate in an amount of 1 ml/well. Phorbol 12-myristate 13-acetate (PMA, final concentration: 30 nM) was added to the wells, followed by incubation in a 5% CO2 -incubator at 37° C. for 65 hours to differentiate the cells into macrophage.
Then, the plate was gently washed with serum-free RPMI1640 medium to remove the cells which were not adhered to the wells, and the residue was cultured for 4 hours in serum-free RPMI1640 medium (1 ml/well) containing lipopolysaccharide (LPS, final concentration: 25 μg/ml) and the test compound (final concentration: 0.05-50 μg/ml).
After the completion of culturing, the amount of IL-1β released into the culture supernatant was determined by using an IL-1β determination kit (Amersham Corp.).
The IL-1 production inhibition rate was calculated according to the following equation to obtain IC50 (50% inhibitory concentration).
IL-1 production inhibition rate (%)=(A-B)/(A-C)×100 […]

[2] = tested on: Candida albicans ATCC 10231; assay: Antibacterial activity, agar dilution method; assay type: cell-based; conditions: ATCC10231; Candida albicans ATCC 10231, agar dilution, pH 7.0
[3] = tested on: Enterococcus hirae ATCC 10541; assay: Antibacterial activity, agar dilution method; assay type: cell-based; conditions: ATCC10541; Enterococcus hirae ATCC 10541, agar dilution, pH 7.0
[4] = tested on: Staphylococcus aureus subsp. aureus ATCC 6538P; assay: Antibacterial activity, agar dilution method; assay type: cell-based; conditions: ATCC6538P, pH 7.0
[5] = tested on: Bacillus subtilis No. 10707; assay: Antibacterial activity, agar dilution method; assay type: cell-based; conditions: Bacillus subtilis No. 10707, agar dilution, pH 7.0
[6] = tested on: Proteus vulgaris ATCC 6897; assay: Antibacterial activity, agar dilution method; assay type: cell-based; conditions: ATCC6897; Proteus vulgaris ATCC 6897, agar dilution, pH 7.0
[7] = tested on: Klebsiella pneumoniae subsp. pneumoniae ATCC 10031; assay: Antibacterial activity, agar dilution method; assay type: cell-based; conditions: ATCC10031; Klebsiella pneumoniae subsp. pneumoniae ATCC 10031, agar dilution, pH 7.0
Solubility = assay type: physicochemical; conditions: methanol, acetonitrile, and chloroform

For CCCCCCC(C)CC(C)/C=C/C(=O)NC1CC2(OC1O)C1OC1C(=O)C1OC12 (centres unmarked) [EI-2128-1], the IC50 [1] was 100 nM, the MIC [2] was 42 µg/mL (≈ 99.6 µM) and the MIC [3] was 0.33 µg/mL (≈ 0.783 µM). It also gave an MIC [4] of 0.33 µg/mL (≈ 0.783 µM), an MIC [5] of 0.16 µg/mL (≈ 0.38 µM) and an MIC [6] of 42 µg/mL (≈ 99.6 µM). The MIC [7] was 21 µg/mL (≈ 49.8 µM) and the Solubility (Solubility) was “Readily soluble in methanol, acetonitrile, and chloroform”.
